≈ marks a conversion by molar mass, not a printed value. Residues, ends and D or L forms follow the SMILES beside them. No end group written: not given here.
Assays:
LPS = assay: Animal model of endotoxicity (LPS/galactosamine endotoxic shock, mortality); type: in vivo, mice; conditions: mouse, LPS + galactosamine i.p., 150 μg peptide i.p.
Description: The wild-type LPS of E. coli ATCC 35218 and P. aeruginosa PAO1 were obtained from the aqueous phase of a water-phenol extract and purified by treatment with chaotropic agents and detergents.
Female ICR (CD-1) mice weighing 20-23 g were randomly distributed in experimental groups (n=16). Endotoxic shock was induced in the animals by coinoculation of LPS and galactosamine following the method of Galanos et al. Specifically, each animal received an intraperitoneal injection containing a mixture of 0.3 μg of LPS and 18 mg of galactosamine resuspended in 200 μl of endotoxin-free saline.
Immediately after LPS administration, animals were intraperitoneally inoculated with 150 μg of the test peptide resuspended in 150 μl of pyrogen-free saline containing 10% dimethylformamide as solubilizing agent. To facilitate the therapeutical action of the peptide, mice so treated were gently massaged at the site of inoculation for a few seconds. Animal mortality was monitored at 6 h and 12 h postinoculation and at daily intervals for 5 days.
In each independent experiment a group of animals received 150 μl of pyrogen-free saline containing 150 μg of polymyxin B, a lipopeptide with well known antiendotoxic properties, whereas another group was left untreated.
Results of animal mortality at all experimental time points were globally analyzed using the Kaplan-Meier survival analysis. When the survival plots were parallel, data were compared by the Log-Rank test, whereas for those plots that intersected the “Breslow-Gehan-Wilcoxon”. […]

MRSA CUN 3792-99 = type: cell-based, methicillin-resistant Staphylococcus aureus
Description: (§1) The antibacterial activity of the peptides was determined by microdilution susceptibility assays performed in Mueller-Hinton broth. Susceptibility testing was performed following the recommendations of the Clinical Standards Institute (CLSI, formerly NCCLS) [Standards, 2000]. Peptides (2 mg/ml in 4 mM HEPES, pH 7.2) were two-fold diluted in Mueller-Hinton Broth in 96-well microtitre plates to obtain concentrations from 512 to 0.25 μg/ml in a volume of 100 μl. Bacteria were grown on Mueller-Hinton agar plates for 1 to 3 days depending on the growth rate of the bacteria, suspended in 2 ml of 0.9% saline and adjusted to 10^8 CFU/ml. The bacterial suspension was diluted 100-fold in Mueller-Hinton broth, and 0.1 ml of this new dilution (10^5 CFU) was added to the peptide dilutions. The microtiter plates were incubated at 37° C. for 24 h. The minimal inhibitory concentration (MIC) of each peptide against a given bacterial strain was regarded as the minimal concentration of the peptide which prevents the growth of that organism 24 h after inoculation. The bactericidal effect of the peptides was determined, after 24 h incubation at 37° C., by plating 10 μl of the content of non-cloudy wells onto Mueller-Hinton agar plates. Plates were incubated at 37° C. for 1 to 5 days, and a viable count was performed. The minimal bactericidal concentration (MBC) of each peptide for a given bacterial strain was regarded as the minimal concentration of the peptide which kills 99.9% of the colony-forming units (CFU) present in the final inoculum.

MRSA ATCC 43300 = type: cell-based, methicillin-resistant Staphylococcus aureus
Description: as §1

[1] = test system: Acinetobacter baumanii ATCC 19606; type: cell-based
Description: as §1

[2] = test system: Staphylococcus aureus ATCC 25923; type: cell-based
Description: as §1

[3] = test system: Stenotrophomonas Maltophilia 3998-00 CUN; type: cell-based
Description: as §1

[4] = test system: Escherichia coli ATCC 25922; type: cell-based
Description: as §1

HIV-1 isolate = assay: Anti-HIV action: inhibition of virus replication in T-cell line PM1; type: cell-based; conditions: 20 μg/ml peptide
Description: A T-cell line (PM1) was incubated with a HIV-1 isolate and the infected cells were cultivated in peptide-containing medium. After some days the number of viruses was determined as compared to untreated cells. The number of viruses is determined by the concentrations of the HIV-capsid in the supernatant. FIG. 8 depicts the anti-HIV action of the peptides Pep19-2, -4, 6, and 8 at peptide concentrations of 1, 5, 10, and 20 μg/ml.

[5] = test system: LPS-induced cytokine expression in human mononuclear cells; assay: Inhibition of LPS-induced cytokine secretion of human mononuclear cells; type: cell-based; conditions: comparison of Pep12, 17-1 and 19-1
Description: Human mononuclear cells (MNC): heparinized (20 IU/ml) blood obtained from healthy donors was mixed with an equal volume of Hank's balanced solution, layered over Ficoll, and centrifuged for 40 min (21° C., 500 g). The interphase layer of MNC was collected and washed twice in Hank's medium and then resuspended in RPMI 1640 supplemented with 2 mM L-glutamine, 100 U/ml penicillin, and 100 μg/ml streptomycin. MNC (200 μl/well; 5×10^6 cells/ml) were transferred into 96-well culture plates. Twenty microliters of a mixture containing LPS (100 ng/ml or 10 ng/ml) and Gra-pep (10:1 weight % excess) was added to each well. Supernatants were harvested after 4 h incubation at 37° C. under 5% CO2, and TNFα production was measured in a sandwich-ELISA. TNFα was determined in duplicate at two different dilutions and the values from two independent experiments were averaged.

Row | Compound | MIC (MRSA CUN 3792-99) [µg/mL] | MIC (MRSA ATCC 43300) [µg/mL] | MIC [1] [µg/mL] | MIC [2] [µg/mL] | MIC [3] [µg/mL] | MIC [4] [µg/mL] | Dead mice/number of mice, 24 h (LPS) | Dead mice/number of mice, 48 h (LPS) | Dead mice/number of mice, 72 h (LPS) | MBC [2] [µg/mL] | MBC [4] [µg/mL] | % inhibition of virus replication in a T-cell line (HIV-1 isolate) [%] | Inhibition of LPS-induced cytokine production [5]
1 | N=C(N)NCCC[C@H](NC(=O)[C@H](Cc1ccc(O)cc1)NC(=O)[C@H](CCCCN)NC(=O)[C@H](CCCCN)NC(=O)[C@H](CS)NC(=O)CN)C(=O)N[C@@H](CCCNC(=N)N)C(=O)N[C@@H](Cc1ccccc1)C(=O)N[C@@H](CCCNC(=N)N)C(=O)N[C@@H](Cc1c[nH]c2ccccc12)C(=O)N[C@@H](CCCCN)C(=O)N[C@@H](Cc1ccccc1)C(=O)N[C@@H](CCCCN)C(=O)NCC(=O)N[C@@H](CCCCN)C(=O)N[C@@H](Cc1ccccc1)C(=O)N[C@@H](Cc1c[nH]c2ccccc12)C(=O)N[C@@H](Cc1ccccc1)C(=O)N[C@@H](Cc1c[nH]c2ccccc12)C(=O)N[C@@H](CS)C(=O)NCC(N)=O [Pep 19-2] (H-GCKKYRRFRWKFKGKFWFWCG-NH2) | 1024 (≈ 364 µM) | 128 (≈ 45.5 µM) | 64 (≈ 22.7 µM) | 128 (≈ 45.5 µM) | 512 (≈ 182 µM) | 128 (≈ 45.5 µM) | 0/10 | 0/10 | 0/10 | 512 (≈ 182 µM) | 512 (≈ 182 µM) |  | 
2 | N=C(N)NCCC[C@H](NC(=O)[C@H](Cc1ccc(O)cc1)NC(=O)[C@H](CCCCN)NC(=O)[C@H](CCCCN)NC(=O)CN)C(=O)N[C@@H](CCCNC(=N)N)C(=O)N[C@@H](Cc1ccccc1)C(=O)N[C@@H](CCCNC(=N)N)C(=O)N[C@@H](Cc1c[nH]c2ccccc12)C(=O)N[C@@H](CCCCN)C(=O)N[C@@H](Cc1ccccc1)C(=O)N[C@@H](CCCCN)C(=O)NCC(=O)N[C@@H](CCCCN)C(=O)N[C@@H](Cc1c[nH]c2ccccc12)C(=O)N[C@@H](Cc1ccccc1)C(=O)N[C@@H](Cc1c[nH]c2ccccc12)C(=O)N[C@@H](Cc1ccccc1)C(=O)NCC(N)=O [Pep 19-4, GKKYRRFRWKFKGKWFWFG] (H-GKKYRRFRWKFKGKWFWFG-NH2) | 16 (≈ 6.13 µM) | 16 (≈ 6.13 µM) | 16 (≈ 6.13 µM) | 15.6 (≈ 5.98 µM) | 32 (≈ 12.3 µM) |  |  |  |  |  | 15.6 (≈ 5.98 µM) |  | 
3 | N=C(N)NCCC[C@H](NC(=O)CNC(=O)[C@H](CCCNC(=N)N)NC(=O)[C@H](Cc1ccccc1)NC(=O)[C@H](CCCCN)NC(=O)[C@H](Cc1c[nH]c2ccccc12)NC(=O)[C@H](CCCNC(=N)N)NC(=O)[C@H](Cc1ccccc1)NC(=O)[C@H](CCCNC(=N)N)NC(=O)[C@H](CCCNC(=N)N)NC(=O)[C@H](Cc1ccc(O)cc1)NC(=O)[C@H](CCCCN)NC(=O)[C@H](CCCCN)NC(=O)CN)C(=O)N[C@@H](Cc1ccccc1)C(=O)N[C@@H](Cc1c[nH]c2ccccc12)C(=O)N[C@@H](Cc1ccccc1)C(=O)N[C@@H](Cc1c[nH]c2ccccc12)C(=O)NCC(N)=O [Pep 19-5, GKKYRRFRWKFRGRFWFWG] (H-GKKYRRFRWKFRGRFWFWG-NH2) | 16 (≈ 6.01 µM) | 16 (≈ 6.01 µM) | 16 (≈ 6.01 µM) | 15.6 (≈ 5.86 µM) | 64 (≈ 24 µM) | 15.6 (≈ 5.86 µM) |  |  |  |  | 15.6 (≈ 5.86 µM) | 99 | 
4 | GCKKFRRLKWKYKGKFWFWCG (GCKKFRRLKWKYKGKFWFWCG-NH2; cysteine pairing not given here) [Pep 19-1] |  |  |  |  |  |  |  |  |  |  |  |  | inhibits most strongly
5 | KKFRRLKWKYKGKFWFW (Synthetic antimicrobial peptide 1Pep17-1) [Pep 17-1] |  |  |  |  |  |  | 7/11 | 7/11 | 8/11 |  |  |  | 
6 | KKYRRFRWKFKGKFWFW (Synthetic antimicrobial peptide 1Pep17-2) [Pep 17-2] |  |  |  |  |  |  | 7/10 | 7/10 | 8/11 |  |  |  | 
7 | polymyxin B [PMB, reference compound] |  |  |  |  |  |  | 0/10 | 0/10 | 0/10 |  |  |  | 

The next lines start with results.

Row | MIC (MRSA CUN 3792-99) [µg/mL] | MIC (MRSA ATCC 43300) [µg/mL] | MIC [1] [µg/mL] | MIC [2] [µg/mL] | MIC [3] [µg/mL] | MIC [4] [µg/mL] | Compound | Dead mice/number of mice, 24 h (LPS) | Dead mice/number of mice, 48 h (LPS) | Dead mice/number of mice, 72 h (LPS) | MBC [2] [µg/mL] | MBC [4] [µg/mL] | % inhibition of virus replication in a T-cell line (HIV-1 isolate) [%] | Inhibition of LPS-induced cytokine production [5]
8 | 32 (≈ 12 µM) | 64 (≈ 24.1 µM) | 64 (≈ 24.1 µM) | >500 | 1024 (≈ 385 µM) | >500 | CC(C)C[C@H](NC(=O)[C@H](Cc1c[nH]c2ccccc12)NC(=O)[C@H](CC(C)C)NC(=O)[C@H](CCCCN)NC(=O)[C@H](CCC(N)=O)NC(=O)[C@H](CCCCN)NC(=O)[C@H](CS)NC(=O)[C@H](CCCCN)NC(=O)[C@H](CC(C)C)NC(=O)[C@H](CCCCN)NC(=O)[C@H](Cc1ccccc1)NC(=O)[C@H](CCCNC(=N)N)NC(=O)[C@H](CCCNC(=N)N)NC(=O)[C@H](Cc1ccccc1)NC(=O)[C@H](CCCCN)NC(=O)[C@H](CCCCN)NC(=O)[C@H](CS)NC(=O)CN)C(=O)N[C@@H](Cc1c[nH]c2ccccc12)C(=O)N[C@@H](CS)C(=O)NCC(N)=O [Pep 19-6] (H-GCKKFRRFKLKCKQKLWLWCG-NH2) |  |  |  | >500 | >500 |  | 
9 | 16 (≈ 6.53 µM) | 16 (≈ 6.53 µM) | 16 (≈ 6.53 µM) | >500 | 645 (≈ 263 µM) | >500 | N=C(N)NCCC[C@H](NC(=O)[C@H](Cc1ccc(O)cc1)NC(=O)[C@H](CCCCN)NC(=O)[C@H](CCCCN)NC(=O)CN)C(=O)N[C@@H](CCCNC(=N)N)C(=O)N[C@@H](Cc1ccccc1)C(=O)N[C@@H](Cc1c[nH]c2ccccc12)C(=O)N[C@@H](CCCCN)C(=O)N[C@@H](Cc1ccccc1)C(=O)N[C@@H](CCCCN)C(=O)NCC(=O)N[C@@H](CCCCN)C(=O)N[C@@H](Cc1c[nH]c2ccccc12)C(=O)N[C@@H](Cc1ccccc1)C(=O)N[C@@H](Cc1ccccc1)C(=O)N[C@@H](Cc1c[nH]c2ccccc12)C(=O)NCC(N)=O [Pep 19-7, GKKYRRFWKFKGKWFFWG] (H-GKKYRRFWKFKGKWFFWG-NH2) |  |  |  | >500 | >500 |  | 
10 | 8 (≈ 3.03 µM) | 8 (≈ 3.03 µM) | 16 (≈ 6.07 µM) |  | 32 (≈ 12.1 µM) |  | N=C(N)NCCC[C@H](NC(=O)CNC(=O)[C@H](CCCCN)NC(=O)[C@H](Cc1ccccc1)NC(=O)[C@H](CCCCN)NC(=O)[C@H](Cc1c[nH]c2ccccc12)NC(=O)[C@H](CCCNC(=N)N)NC(=O)[C@H](Cc1ccccc1)NC(=O)[C@H](CCCCN)NC(=O)[C@H](CCCCN)NC(=O)[C@H](Cc1ccc(O)cc1)NC(=O)[C@H](CCCNC(=N)N)NC(=O)[C@H](CCCNC(=N)N)NC(=O)CN)C(=O)N[C@@H](Cc1c[nH]c2ccccc12)C(=O)N[C@@H](Cc1ccccc1)C(=O)N[C@@H](Cc1c[nH]c2ccccc12)C(=O)N[C@@H](Cc1ccccc1)C(=O)NCC(N)=O [Pep 19-8, GRRYKKFRWKFKGRWFWFG] (H-GRRYKKFRWKFKGRWFWFG-NH2) |  |  |  |  |  | 99 | 

Reference: patent US8633164B2, “Antimicrobial peptides” (priority 2008, dated 2014)
